Experimental data taken from US20050171005A1, “Methods and compositions for modulating beta-catenin phosphorylation” (priority 2002, published 2005).

How the values were obtained:
[1] = system: endogenous β-catenin; experiment: Phosphorylation of endogenous β-catenin in proteasome-inhibited HeLa cells with kinase inhibitors; format: cell-based; conditions: CKI-7 100 μM; for S33 phosphorylation of endogenous β-catenin: LiCl 40 mM
Method: FIG. 5d: Effects of specific kinase inhibitors on the phosphorylation of endogenous β-catenin at S41,45 and S33 in HeLa cells. CKI-7 was used at 100 μM, H89 at 5 μM and LiCl at 40 mM. β-catenin was detected with anti-β-catenin antibody, or anti-phospho-p-catenin antibodies.
(§1) 293T cells were transiently transfected using the calcium phosphate procedure. The following expression vectors were used: Myc- or Flag-tagged β-catenin (0.5 μg) (a human β-catenin clone obtained from R. Grosschedl), Flag- or Myc-tagged axin (2 μg) (mouse cDNA provided by F. Costantini), HA-GSK3β or Flag-GSK3β (3.5 μg) (a rabbit clone obtained from J R Woodgett) [Woodgett, J. R. (1990) EMBO J 9: 2431-2438]. β-catenin mutants include DP, (S33, S37, T40, S45, S47 substituted to alanine) single point mutants (S29F, S33Y, S37A, T41A, S45F) and 45PKA (T41S, T42R, A43R). Additional vectors: Flag-WD, a dominant negative β-TrCP fragment (ΔF-box) [Yaron, A. et al. (1998) Nature 396: 590-594]; Flag-Dvl-1 (a mouse cDNA clone obtained from S-I Yanagawa) [Lee, J. S. et al. (1999) J Biol Chem 274: 21464-21470]; WT and dominant negative Xenopus CKIε (XCKIε-D128N) (provided by T. Shcwarz-Romond) [McKay, R. M. et al. (2001) Dev Biol 235: 378-387]. 24-48 hr after transfection, cells were harvested and processed for the various experiments. MG-132 (Sigma) was used at 20 μM for 5 hr; LiCl (40 mM) was added for 6 hr, and CKI-7 (100 μM) for 16 hr prior to harvesting. β-catenin, axin or GSK-30 in cell lysates were detected using anti-Myc (Ab-1, Oncogenes Research Products, 2 μg/ml), anti-Flag (M2, Sigma, 1 μg/ml) and anti-HA (12CA5 ascites fluid; 1:5000) antibodies, respectively. GFP expression was monitored with anti-GFP antibody (JL-8, Clontech, 1 μg/ml). In some experiments (FIG. 4) GSK-3β was detected using anti-GSK-3β monoclonal antibodies (clone 7, Transduction Laboratories, 0.1 μg/ml). Endogenous and exogenous β-catenin (FIGS. 5d and 6a) were detected with anti-β-catenin antibodies (clone 14, Transduction Laboratories) (0.25 μg/ml).
Western blot and mass spectrometry (MS). Three different commercial anti-β-catenin phospho-peptide antibodies were used: i) Anti-phospho-Thr41/Ser 45 (Cell Signaling Technology), a polyclonal antibody specific for both pT41 and pS45 (otp41,45). ii) Anti-phospho-Ser33/37/Thr41 (Cell Signaling Technology), a polyclonal antibody recognizing pS33 (αp33). […] Antibody specificities were determined by phosphopeptide inhibition studies. […]
In another set of experiments the in vivo role of CKI in S45 phosphorylation was analyzed, using two dominant negative CKIε constructs (dnXCKIε K85R and D128N) [McKay et al. (2001) id ibid.] and a specific CKI inhibitor (CKI-7) [Chijiwa, T. et al. (1989) J Biol Chem 264: 4924-4927]. […]

[2] = system: LB33B1 cells; experiment: LB33B1 melanoma cell growth, live cell count 24 hours post treatment; format: cell-based; conditions: increasing concentrations of CKI7, live cells counted 24 hours post treatment
Method: FIG. 10d: Blocking β-catenin phosphorylation in a melanoma cell line affects cell growth. LB33B1 cells were treated with increasing concentrations of the S45 phosphorylation inhibitor CKI7 and live cells were counted 24 hours post treatment. • Abbreviations: U.T., untreated or untransfected; Rel. ce. numb. 24 hrs. po. treat., relative cell numbers 24 hours post-treatment.
(§2) The highly metastatic melanoma cell line LB33B1 (B1) is a derivative of the low grade malignant LB33A1 (A1) cells [Ikeda H. et al., (1997) Immunity 6(2): 199-208]. Both cell lines harbor a similar high content of β-catenin, irrespective of proteasome inhibition, yet the B1 β-catenin is phosphorylated (FIG. 10b). […] To assess the contribution of phosphorylated versus non-phosphorylated β-catenin to the MITF-transcriptional activity, reporter-transfected B1 cells were treated with LiCl, which suppresses GSK3 phosphorylation, or cotrasfected with Dvl-ΔPDZ, which cannot cooperate with Frat1, yet suppresses S45 phosphorylation. […] Abrogating β-catenin phosphorylation in melanoma cells may compromise their growth and indeed, treatment of B1 melanoma cells with CKI7, a small-molecule specific CKI inhibitor, slowed their proliferation (FIG. 10d) along with suppressing the phosphorylation of β-catenin (data not shown).

[3] = system: β-catenin; format: cell-based, human; conditions: 293 cells
Method: as §1
Western blot and mass spectrometry (MS). Three different commercial anti-β-catenin phospho-peptide antibodies were used: i) Anti-phospho-Thr41/Ser 45 (Cell Signaling Technology), a polyclonal antibody specific for both pT41 and pS45 (otp41,45). ii) Anti-phospho-Ser33/37/Thr41 (Cell Signaling Technology), a polyclonal antibody recognizing pS33 (αp33). These two polyclonal antibodies were used at a 1:1000 dilution, according to the manufacturer's instructions. iii) anti-phospho-Ser 33/37 (BC-22, Sigma), a monoclonal antibody specific for pS37 (used as ascites fluid at a 1:3000 dilution; αp37). Antibody specificities were determined by phosphopeptide inhibition studies. D^32S(PO4)GIHSGATTTAPS^45 abolished the αp33, but not the αp37 signal; D^32SGIHS(PO4)GATTTAPS^45 blocked the αp37 but not the αp33 signal. […] Proteins for MS analysis were immunopurified by M2 Flag-affinity beads (Sigma), separated by SDS-PAGE, Coomassie stained and the β-catenin bands were in-gel digested with endoproteinase Asp-N. The resulting peptides were desalted on small columns, eluted with 20% MeOH, 5% HCOOH, and analyzed by nanoelectrospray mass spectrometry [Yaron et al. (1998) id ibid.], using a quadrupole time-of-flight mass spectrometer (PE-Sciex, Canada).
GSK-3β is traditionally known to target the phosphorylation of +4P-primed substrates [Frame, S. et al. (2001) Mol Cell 7: 1321-1327], a specificity supported by recent structural studies of the enzyme [Dajani, R. et al (2001) Cell 105: 721-732]. The fact that the S45 phosphorylation site is not preceded by a +4P priming site led to the proposition that the molecular complex of axin and GSK-3β is capable of bypassing the priming requirement of the uncomplexed enzyme [Cohen and Frame (2001) id ibid.]. To assess the contribution of GSK-30 in axin-mediated S45 phosphorylation, two types of experiments were carried out. In the first set, 293 cells were incubated prior to harvesting with LiCl, a GSK-3β inhibitor capable of mimicking a Wnt effect [Klein, P. S. and D. A. Melton (1996) Proc Natl Acad Sci USA 93: 8455-8459; Stambolic, V. et al. (1996) Curr Biol 6: 1664-1668].

[4] = system: β-catenin; experiment: β-catenin phosphorylation in B1 melanoma cells; format: cell-based; conditions: data not shown
Method: as §2

[5] = system: MITF-M promoter; experiment: pGL3-MITF/M luciferase reporter assay in LB33B1 melanoma cells; format: cell-based; conditions: reporter-transfected B1 (LB33B1) cells; 20 mM LiCl for 24 hours
Method: FIG. 10c: MITF transcriptional activity requires β-catenin phosphorylation. The two related melanoma cell lines LB33A1 and LB33B1 were transfected with the pGL3-MITF/M luciferase reporter plasmid [Takeda et al. (2000) J Biol Chem 275: 14013-6] alone or together with DvlΔPDZ expression plasmid. 24 hours after transfection, one sample of cells was treated with 20 mM LiCl for 24 hours, as indicated. Cells were harvested and their lysate luciferase activity was determined using Promega's Luciferase Assay System. MITF-M transcriptional activity is expressed in Relative Luciferase Units (RLU). A TCF mutant-site reporter (pGL3-MITF/M195.3) was used to control TCF-independent transcription.
Cells were transfected with the TOPFLASH or pGL3-MITF/M luciferase reporter plasmids [Korinek et al., (1997) Science, 275: 1752-3; Takeda et al. (2000) J. Biol. Chem. 275: 14013-6] and the relevant expression plasmid combinations. 24 hours after transfection the cells were harvested. Luciferase activity was determined in the cells' lysate using Promega's Luciferase Assay System. The transcription activity is expressed in Relative Luciferase Units (RLU). TCF mutant-site reporters (FOPFLASH and pGL3-MITF/M195.3) were used to control TCF-independent transcriptional transactivation. […]

[6] = MG-132 treated, LiCl 40 mM for 6 hr

| Structure (SMILES) | S45/T41 phosphorylation of endogenous β-catenin [1] | S33 phosphorylation of endogenous β-catenin [1] | proliferation of B1 melanoma cells [2] | axin-induced p45 signal of wt β-catenin ([3]; CKI-7 100 μM for 16 hr) | constitutive S45 phosphorylation of 45PKA β-catenin ([3]; CKI-7 100 μM for 16 hr, H89 data not shown) | phosphorylation of β-catenin [4] | MITF promoter activity [5] | S45 phosphorylation of T41A mutated β-catenin ([3]; MG-132 treated, LiCl 40 mM) | axin-induced S33/37 phosphorylation of wt β-catenin [3, 6] | axin-induced T41/S45 phosphorylation signal of wt β-catenin [3, 6] | MS analysis of S45 peptides, treated versus non-treated cells ([3]; data not shown) |
| --- | --- | --- | --- | --- | --- | --- | --- | --- | --- | --- | --- |
| NCCNS(=O)(=O)c1ccc(Cl)c2ccncc12 [CKI-7] | suppressed | suppressed | slowed | diminished | did not affect | suppressing |  |  |  |  |  |
| [Cl-].[Li+] [LiCl] |  | exclusively blocked |  |  |  |  | inhibition | no effect | abolished | minimally affected | no difference |
